Laboratory results published in patent US8067615B2, “Sulphonylpyrroles” (4SC AG, priority 2004, dated 2011).

Assays:
[1] = system: HeLa cervical carcinoma cells; test: Cellular cytotoxicity assay (Alamar Blue / Resazurin); type: cell-based; conditions: Homo sapiens, 48 hours incubation
Experimental: The anti-proliferative activity of the histone deacetylase inhibitory compounds as described herein, was evaluated with the HeLa cervical carcinoma cell line (ATCC CCL2) using the Alamar Blue (Resazurin) cell viability assay (O'Brien et al. Eur J Biochem 267, 5421-5426, 2000). Resazurin is reduced to the fluorescent resorufin by cellular dehydrogenase activity, correlating with viable, proliferating cells. Test compounds were dissolved as 10 mM solutions in dimethylsulfoxide (DMSO) and subsequently diluted in semi-logarithmic steps. HeLa cells were seeded into 96 well flat bottom plates at a density of 3000 cells per well in a volume of […] per well. 24 hours after seeding 1 μl each of the compound dilutions were added into each well of the 96 Well plate. Each compound dilution was tested as quadruplicates. Wells containing untreated control cells were filled with 200 μl DMEM medium containing 0.5% v:v DMSO. The cells were then incubated with the substances for 48 hours at 37° C. in a humidified atmosphere containing 5% carbon dioxide. To determine the viability of the cells, 20 μl of an Resazurin solution (Sigma; 90 mg/l) were added. After 4 hours incubation at 37° C. the fluorescence was measured at an […] of 544 nm and an emission of 590 nm. For the calculation of the cell viability the emission value from untreated cells was set as 100% viability and the emission rates of treated cells were set in relation to the values of untreated cells. Viabilities were expressed as % values. The corresponding IC50 values of the compounds for cytotoxic activity are determined from the concentration-effect curves by means of non-linear regression.

[2] = system: histone H3K23 hyperacetylation in HeLa cervical carcinoma cells; test: Cellular histone H3 hyperacetylation assay; type: cell-based; conditions: Homo sapiens, 24 h with compound, read-out: Induction of histone H3K23 hyperacetylation EC50
Source text: To assess the cellular efficacy of an histone deacetylase inhibitor in vitro, an assay was set up in black clear-bottom 96-well plates and optimized for use on the Cellomics “ArrayScan II” platform for a quantitative calculation of […] acetylation. The protocol uses a polyclonal rabbit antibody, specifically binding to acetylated lysine 23 of human histone H3 on fixed cells with an Alexa Fluor 488 labeled goat anti rabbit-IgG used for counterstaining (Braunger et al. AACR annual conference 2003, Abstract 4556). 5×10^3 HeLa cervical carcinoma cells/well (ATCC CCL-2) in 200 μl Dulbecco's modified Eagle's medium (DMEM) containing 10% fetal calf serum were seeded at day 1 in Packard view plates and incubated for 24 h under standard cell culture conditions. On day 2, 2 μl test compound (100× final concentration) was added and incubation continued for further 24 h. On day 3, the culture medium was discarded and attached cells fixed for 15 min at room temperature by addition of 100 μl fixation buffer (3.7% v:v formaldehyde in phosphate buffered saline/PBS). After discarding the fixation buffer and one wash with PBS, cells were permeabilized at room temperature by addition of 100 μl/well permeabilization buffer (30.8 mM NaCl, 0.54 mM Na2HPO4, 0.31 mM KH2PO4, 5% v:v Triton X-100) for 15 min at room temperature. After discarding the permeabilization buffer and addition of 100 μl/well blocking solution (PBS with 0.05% v:v Tween 20 and 5% w:v milk powder) for 30 min at room temperature, the 1st antibody (anti-K23 histone H3 antibody, Cell Signaling No. 9674) in blocking solution (50 μl/well) was added. After incubation for 1 h at 37° C., the wells were washed 5 times for 5 min at room temperature with wash buffer (PBS with 0.05% v:v Tween 20) before addition of the 2nd antibody (goat-anti-rabbit Alexa Fluor 488; MoBiTec No. A-11008) in blocking solution (50 μl/well). After further incubation for 30 min at 37° C., wells were washed 5 times for 5 min at RT with 100 μl wash buffer at room temperature. Finally, 100 μl/well PBS were added and image analysis performed on the Cellomics “ArrayScan II” platform. For calculation of EC50 values, the nuclear fluorescence in cells treated with and without a reference HDAC inhibitor like SAHA or NVP-LBH-589 were taken as a positive and negative control, respectively. For EC50 determination, the percentage of positive cells was determined and EC50 calculation done from concentration-effect curves by means of non-linear regression.

EC50 [2] [µM] | melting point [°C] | SMILES | IC50 [1] [nM]
2.15 to 51.3 | – | O=C(/C=C/c1ccn(S(=O)(=O)Cc2ccccc2)c1)NO [Compound 2, N-Hydroxy-3-(1-phenylmethanesulfonyl-1H-1-pyrrol-3-yl)-acrylamide] | 800 to 21600
– | 219.3 to 221.4 | O=C(/C=C/c1ccn(S(=O)(=O)c2ccc(-c3ccncc3)cc2)c1)NO [Compound 18, (E)-N-Hydroxy-3-[1-(4-pyridin-4-yl-benzenesulfonyl)-1H-pyrrol-3-yl]-acrylamide] | 70 to 5000
2.15 to 51.3 | – | CN(C)c1ccc(S(=O)(=O)n2ccc(C=CC(=O)NO)c2)cc1 [Compound 4, (E)-3-[1-(4-Dimethylamino-benzenesulfonyl)-1H-1-pyrrol-3-yl]-N-hydroxy-acrylamide] | 800 to 21600
– | 232.3 to 240.9 | Nc1ccccc1NC(=O)C=Cc1ccn(S(=O)(=O)c2ccc(-c3cn[nH]c3)cc2)c1 [Compound 22, (E)-N-(2-Amino-phenyl)-3-{1-[4-(1H-1-pyrazol-4-yl)-benzenesulfonyl]-1H-pyrrol-3-yl}-acrylamide] | 70 to 5000
2.15 to 51.3 | – | CN(C)c1ccc(S(=O)(=O)n2ccc(/C=C/C(=O)Nc3ccccc3N)c2)cc1 [Compound 8, (E)-N-(2-Amino-phenyl)-3-[1-(4-dimethylamino-benzenesulfonyl)-1H-pyrrol-3-yl]-acrylamide] | 800 to 21600
– | 160.7 to 166.6 | O=C(/C=C/c1ccn(S(=O)(=O)c2ccc(-n3cccn3)cc2)c1)NO [Compound 25, (E)-N-Hydroxy-3-[1-(4-pyrazol-1-yl-benzenesulfonyl)-1H-pyrrol-3-yl]-acrylamide] | 70 to 5000
2.15 to 51.3 | 168 to 170 | O=C(/C=C/c1ccn(S(=O)(=O)c2ccc(CN3CCOCC3)cc2)c1)NO [Compound 27, (E)-N-Hydroxy-3-[1-(4-morpholin-4-ylmethyl-benzenesulfonyl)-1H-pyrrol-3-yl]acrylamide] | 70 to 5000
2.15 to 51.3 | – | Nc1ccccc1NC(=O)C=Cc1ccn(S(=O)(=O)c2ccc(-c3ccccc3)cc2)c1 [Compound 7, (E)-N-(2-Amino-phenyl)-3-[1-(biphenyl-4-sulfonyl)-1H-1-pyrrol-3-yl]-acrylamide] | 800 to 21600
– | 199.7 to 202.3 | Nc1ccccc1NC(=O)/C=C/c1ccn(S(=O)(=O)c2ccc(-c3cccnc3)cc2)c1 [Compound 21, (E)-N-(2-Amino-phenyl)-3-[1-(4-pyridin-3-yl-benzenesulfonyl)-1H-pyrrol-3-yl]-acrylamide] | 70 to 5000

The remaining lines, values behind:

SMILES | EC50 [2] [µM] | melting point [°C] | IC50 [1] [nM]
O=C(/C=C/c1ccn(S(=O)(=O)c2ccc(CNCc3c[nH]c4ccccc34)cc2)c1)NO [Compound 12, (E)-N-Hydroxy-3-[1-(4-{[(1H-indol-3-ylmethyl)-amino]-methyl}-benzenesulfonyl)-1H-pyrrol-3-yl]-acrylamide] | – | – | 70 to 5000
CN(CCc1cc2ccccc2[nH]1)Cc1ccc(S(=O)(=O)n2ccc(/C=C/C(=O)NO)c2)cc1 [Compound 9, (E)-N-Hydroxy-3-(1-[4-(([2-(1H-indol-2-yl)-ethyl]-methyl-amino)-methyl)-benzenesulfonyl]-1H-pyrrol-3-yl)-acrylamide] | 2.15 to 51.3 | – | 70 to 5000
Cc1ccc(S(=O)(=O)n2ccc(C=CC(=O)NO)c2)cc1 [Compound 1, (E)-N-Hydroxy-3-[1-(toluene-4-sulfonyl)-1-H-pyrrol-3-yl]-acrylamide] | 2.15 to 51.3 | – | 800 to 21600
NCc1ccc(S(=O)(=O)n2ccc(/C=C/C(=O)NO)c2)cc1 [Compound 17, (E)-3-[1-(4-Aminomethyl-benzenesulfonyl)-1H-pyrrol-3-yl]-N-hydroxy-acrylamide] | – | 227 to 228.6 | 70 to 5000
O=C(/C=C/c1ccn(S(=O)(=O)c2ccc(-c3ccccn3)s2)c1)NO [Compound 24, (E)-N-Hydroxy-3-[1-(5-pyridin-2-yl-thiophene-2-sulfonyl)-1H-pyrrol-3-yl]-acrylamide] | – | – | 70 to 5000
O=C(/C=C/c1ccn(S(=O)(=O)c2ccc(CNCc3ccncc3)cc2)c1)NO [Compound 16, (E)-N-Hydroxy-3-[1-(4-{[(pyridin-4-ylmethyl)-amino]-methyl}-benzenesulfonyl)-1H-pyrrol-3-yl]-acrylamide] | – | – | 70 to 5000
O=C(/C=C/c1ccn(S(=O)(=O)c2ccc(-c3ccccc3)cc2)c1)NO [Compound 3, (E)-3-[1-(Biphenyl-4-sulfonyl)-1H-pyrrol-3-yl]-N-hydroxy-acrylamide] | 2.15 to 51.3 | – | 800 to 21600
O=C(/C=C/c1ccn(S(=O)(=O)c2ccc(CN(CCO)CCc3cc4ccccc4[nH]3)cc2)c1)NO [Compound 28, (E)-N-Hydroxy-3-{1-[4-({(2-hydroxy-ethyl)-[2-(1H-indol-2-yl)-ethyl]-amino}-methyl)-benzenesulfonyl]-1H-pyrrol-3-yl}-acrylamide] | – | – | 70 to 5000
Nc1ccccc1NC(=O)/C=C/c1ccn(S(=O)(=O)c2ccc(-c3ccncc3)cc2)c1 [Compound 20, (E)-N-(2-Amino-phenyl)-3-[1-(4-pyridin-4-yl-benzenesulfonyl)-1H-pyrrol-3-yl]-acrylamide] | – | 244.2 to 246.5 | 70 to 5000
O=C(/C=C/c1ccn(S(=O)(=O)c2ccc(CNCc3ccc4[nH]ccc4c3)cc2)c1)NO [Compound 15, (E)-N-Hydroxy-3-[1-(4-{[(1H-indol-5-ylmethyl)-amino]-methyl}-benzenesulfonyl)-1H-pyrrol-3-yl]-acrylamide] | – | – | 70 to 5000
O=C(/C=C/c1ccn(S(=O)(=O)c2cccc(-c3ccccc3)c2)c1)NO [Compound 23, (E)-3-[1-(Biphenyl-3-sulfonyl)-1H-pyrrol-3-yl]-N-hydroxy-acrylamide] | – | 114 to 159.4 | 70 to 5000
Nc1ccccc1NC(=O)/C=C/c1ccn(S(=O)(=O)c2ccc(-c3ccccn3)s2)c1 [Compound 26, (E)-N-(2-Amino-phenyl)-3-[1-(5-pyridin-2-yl-thiophene-2-sulfonyl)-1H-pyrrol-3-yl]-acrylamide] | – | – | 70 to 5000
O=C(/C=C/c1ccn(S(=O)(=O)c2ccc(CNCc3cccnc3)cc2)c1)NO [Compound 11, (E)-N-Hydroxy-3-[1-(4-{[(pyridin-3-ylmethyl)-amino]-methyl}-benzenesulfonyl)-1H-pyrrol-3-yl]-acrylamide] | – | – | 70 to 5000
CC(C)CNCc1ccc(S(=O)(=O)n2ccc(/C=C/C(=O)NO)c2)cc1 [Compound 14, (E)-N-Hydroxy-3-{1-[4-(isobutylamino-methyl)-benzenesulfonyl]-1H-pyrrol-3-yl}-acrylamide] | – | – | 70 to 5000
O=C(/C=C/c1ccn(S(=O)(=O)c2ccc(-c3cn[nH]c3)cc2)c1)NO [Compound 19, (E)-N-Hydroxy-3-{1-[4-(1H-pyrazol-4-yl)-benzenesulfonyl]-1H-pyrrol-3-yl}-acrylamide] | – | 203.8 to 211.9 | 70 to 5000
CN(C)Cc1ccc(S(=O)(=O)n2ccc(/C=C/C(=O)NO)c2)cc1 [Compound 10, (E)-3-[1-(4-Dimethylaminomethyl-benzenesulfonyl)-1H-pyrrol-3-yl]-N-hydroxy-acrylamide] | 2.15 to 51.3 | – | 70 to 5000
O=C(/C=C/c1ccn(S(=O)(=O)c2ccc(CNCc3ccccc3)cc2)c1)NO [Compound 13, (E)-3-{1-[4-(Benzylamino-methyl)-benzenesulfonyl]-1H-pyrrol-3-yl}-N-hydroxy-acrylamide] | – | – | 70 to 5000
